Test results published in patent publication US20050014811A1, “Substituted benzimidazole compounds and their use for the treatment of cancer” (Aventis Pharma S.A., priority 2001, published 2005).

Assays:
CDK4/CyclinD1 = CDK4/CyclinD1 (Homo sapiens, UniProt P11802); assay: CDK4/CyclinD1 Flashplate assay, 96-well format, biotinylated-Rb peptide substrate; format: biochemical
In short: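 Biotinylated Rb peptide bound to streptavidin Flashplate; CDK4/CyclinD1 (70 ng/well) preincubated 30 min on ice with compound at 10, 3, 1, 0.3 and 0.1 μM final. Reaction with 1 μM cold ATP plus 33P-ATP for 45 min at RT; incorporated 33P counted, duplicates.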

CDK2/CyclinE = CDK2/CyclinE (Homo sapiens, UniProt P24941); assay: CDK2/CyclinE Flashplate assay, 96-well format, biotinylated-Rb peptide substrate; format: biochemical
In short: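 Biotinylated Rb peptide was captured on streptavidin Flashplates, and CDK2/CyclinE (200 ng/well) was preincubated 30 min on ice with inhibitor at 10, 3, 1, 0.3 or 0.1 μM final. Reactions ran 45 min at RT with 1 μM ATP plus 1 μCi ^33P-ATP. After washing, incorporated ^33P was counted, in duplicate.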

Chain of CDK4/CyclinD1 (P11802 whole entry, species assumed): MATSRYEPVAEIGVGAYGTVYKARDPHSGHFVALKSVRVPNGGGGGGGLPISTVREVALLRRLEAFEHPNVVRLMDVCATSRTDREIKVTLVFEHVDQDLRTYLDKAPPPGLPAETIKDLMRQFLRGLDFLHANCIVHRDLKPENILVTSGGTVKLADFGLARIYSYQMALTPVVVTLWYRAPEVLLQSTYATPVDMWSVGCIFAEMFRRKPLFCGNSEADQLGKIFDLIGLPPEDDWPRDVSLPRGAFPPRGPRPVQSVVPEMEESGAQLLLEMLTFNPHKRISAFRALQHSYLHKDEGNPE
Chain of CDK4/CyclinD1 (P24385 whole entry partner, species assumed): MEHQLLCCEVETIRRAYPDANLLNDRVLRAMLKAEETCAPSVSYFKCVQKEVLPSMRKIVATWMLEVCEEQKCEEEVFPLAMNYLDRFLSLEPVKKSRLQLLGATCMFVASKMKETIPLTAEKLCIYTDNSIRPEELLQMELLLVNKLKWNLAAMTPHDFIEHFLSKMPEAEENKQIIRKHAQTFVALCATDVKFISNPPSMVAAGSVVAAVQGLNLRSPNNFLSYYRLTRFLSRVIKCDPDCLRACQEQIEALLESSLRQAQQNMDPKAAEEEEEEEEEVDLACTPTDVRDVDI

IC50 (CDK4/CyclinD1) [µM]	melting point [°C]	IC50 (CDK2/CyclinE) [µM]	inhibition at 10 µM (CDK4/CyclinD1) [%]	SMILES
1.5	170	0.6		COC(=O)Nc1nc2cc(OS(=O)(=O)c3ccc(NCCO)cc3)ccc2[nH]1 [Example 1, Methyl-5-(4-[2-hydroxyethyl]aminophenylsulfonyloxy) benzimidazole-2-carbamate]
2.4	155	0.5		COCCNc1ccc(S(=O)(=O)Oc2ccc3[nH]c(NC(=O)OC)nc3c2)cc1 [Example 3, Methyl-5-(4-[2-methoxyethyl]aminophenylsulfonyloxy) benzimidazole-2-carbamate]
6.3	258	1.5		COC(=O)Nc1nc2cc(OS(=O)(=O)c3ccc(-n4ccnc4)cc3)ccc2[nH]1 [Example 4, Methyl-5-(4-[1-imidazolyl]-phenylsulfonyloxy) benzimidazole-2-carbamate]
1.12		2.2		COC(=O)Nc1nc2cc(OS(=O)(=O)c3ccc(NCc4ccccn4)cc3)ccc2[nH]1 [Example 5, Methyl-5-(4-[2-pyridylmethyl]aminophenylsulfonyloxy) benzimidazole-2-carbamate]
0.18		0.1		CC(CO)NC(=O)Nc1nc2cc(OS(=O)(=O)c3ccc(NC4CCCC4)cc3)ccc2[nH]1 (stereo not shown) [Example 58-ak, 4-Cyclopentylamino-benzenesulfonic acid 2-[3-(2-hydroxy-1-methyl-ethyl)-ureido]-1H-benzoimidazol-5-yl ester]
		0.3	81	O=C(Nc1nc2cc(OS(=O)(=O)c3ccc(NC4CCCC4)cc3)ccc2[nH]1)N1CCC1 [Example 58-i, 4-Cyclopentylamino-benzenesulfonic acid 2-[(azetidine-1-carbonyl)-amino]-1H-benzoimidazol-5-yl ester]
		0.4	88	CN(C)c1ccc(NC(=O)Nc2nc3cc(OS(=O)(=O)c4ccc(NC5CCCC5)cc4)ccc3[nH]2)cc1 [Example 49, 4-Cyclopentylamino-benzenesulfonic acid 2-[3-(4-dimethylamino-phenyl)-ureido]-1H-benzoimidazol-5-yl ester]
1.7		0.6		CN(C)CC(=O)Nc1nc2cc(OS(=O)(=O)c3ccc(NC4CCCC4)cc3)ccc2[nH]1 [Example 29, 4-Cyclopentylamino-benzenesulfonic acid 2-(2-dimethylamino-acetylamino)-1H-benzoimidazol-5-yl ester]
2	180	0.7		COC(=O)Nc1nc2cc(OS(=O)(=O)c3ccc(NCCCCO)cc3)ccc2[nH]1 [Example 2, Methyl-5-(4-[4-hydroxbutyl]aminophenylsulfonyloxy) benzimidazole-2-carbamate]
0.3		0.04		COCCNC(=O)Nc1nc2cc(OS(=O)(=O)c3ccc(NC4CCCC4)cc3)ccc2[nH]1 [Example 48, 4-Cyclopentylamino-benzenesulfonic acid 2-[3-(2-methoxy-ethyl)-ureido]-1H-benzoimidazol-5-yl ester]
0.9		0.007		CCNC(=O)Nc1nc2cc(OS(=O)(=O)c3ccc(NCC4CCCO4)cc3)ccc2[nH]1 (stereo not shown) [Example 59-j, 4-[(Tetrahydro-furan-2-ylmethyl)-amino]-benzenesulfonic acid 2-(3-ethyl-ureido)-1H-benzoimidazol-5-yl ester]
1		0.007		O=C(NCCCO)Nc1nc2cc(OS(=O)(=O)c3ccc(NCC4CCCO4)cc3)ccc2[nH]1 (stereo not shown) [Example 59-c, 4-[(Tetrahydro-furan-2-ylmethyl)-amino]-benzenesulfonic acid 2-[3-(3-hydroxy-propyl)-ureido]-1H-benzoimidazol-5-yl ester]
1		0.03		O=C(NCc1ccccc1)Nc1nc2cc(OS(=O)(=O)c3ccc(NC4CCCC4)cc3)ccc2[nH]1 [Example 58-l, 4-Cyclopentylamino-benzenesulfonic acid 2-(3-benzyl-ureido)-1H-benzoimidazol-5-yl ester]
0.13		0.08		COC(=O)CCC(=O)Nc1nc2cc(OS(=O)(=O)c3ccc(NC4CCCC4)cc3)ccc2[nH]1 [Example 25, N-[5-(4-Cyclopentylamino-benzenesulfonyloxy)-1H-benzoimidazol-2-yl]-succinamic acid methyl ester]
0.44		0.2		COC(=O)Nc1nc2cc(OS(=O)(=O)c3cccs3)ccc2[nH]1 [Example 62-b, Thiophene-2-sulfonic acid 2-methoxycarbonylamino-1H-benzoimidazol-5-yl ester]
1.5		1		COC(=O)Nc1nc2cc(OS(=O)(=O)c3cccc(OC)c3)ccc2[nH]1 [Example 62-i, 3-Methoxy-benzenesulfonic acid 2-methoxycarbonylamino-1H-benzoimidazol-5-yl ester]
		0.5	70	O=C(Nc1cccc(F)c1)Nc1nc2cc(OS(=O)(=O)c3ccc(-n4ccnc4)cc3)ccc2[nH]1 [Example 57-d, 4-Imidazol-1-yl-benzenesulfonic acid 2-[3-(3-fluoro-phenyl)-ureido]-1H-benzoimidazol-5-yl ester]
0.3		0.007		O=C(NCCO)Nc1nc2cc(OS(=O)(=O)c3ccc(NCC4CCCO4)cc3)ccc2[nH]1 (stereo not shown) [Example 59-b, 4-[(Tetrahydro-furan-2-ylmethyl)-amino]-benzenesulfonic acid 2-[3-(2-hydroxy-ethyl)-ureido]-1H-benzoimidazol-5-yl ester]
